Tests used:
[1] = molecular target: T1, Succinate-semialdehyde dehydrogenase, mitochondrial (Homo sapiens, UniProt P51649); experiment: Inhibitory activity against SSADH
T1 sequence (P51649 whole entry): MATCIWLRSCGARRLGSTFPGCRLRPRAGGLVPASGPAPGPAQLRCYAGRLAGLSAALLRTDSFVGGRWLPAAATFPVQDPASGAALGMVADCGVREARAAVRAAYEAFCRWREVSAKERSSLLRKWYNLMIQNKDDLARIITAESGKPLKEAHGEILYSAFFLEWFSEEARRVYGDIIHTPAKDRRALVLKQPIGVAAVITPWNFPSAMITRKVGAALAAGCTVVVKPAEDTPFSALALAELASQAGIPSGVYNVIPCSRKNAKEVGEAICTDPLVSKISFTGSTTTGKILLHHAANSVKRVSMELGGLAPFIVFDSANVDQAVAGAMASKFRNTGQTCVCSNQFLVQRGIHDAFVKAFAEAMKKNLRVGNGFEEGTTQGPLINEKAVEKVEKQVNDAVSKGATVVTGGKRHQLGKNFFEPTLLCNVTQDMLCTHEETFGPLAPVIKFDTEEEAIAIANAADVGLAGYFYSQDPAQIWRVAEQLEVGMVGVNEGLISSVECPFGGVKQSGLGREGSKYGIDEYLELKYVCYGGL

[2] = molecular target: 4-aminobutyrate aminotransferase, mitochondrial (Homo sapiens, UniProt P80404); experiment: Inhibitory activity against GABAT
Chain of 4-aminobutyrate aminotransferase, mitochondrial (P80404 whole entry): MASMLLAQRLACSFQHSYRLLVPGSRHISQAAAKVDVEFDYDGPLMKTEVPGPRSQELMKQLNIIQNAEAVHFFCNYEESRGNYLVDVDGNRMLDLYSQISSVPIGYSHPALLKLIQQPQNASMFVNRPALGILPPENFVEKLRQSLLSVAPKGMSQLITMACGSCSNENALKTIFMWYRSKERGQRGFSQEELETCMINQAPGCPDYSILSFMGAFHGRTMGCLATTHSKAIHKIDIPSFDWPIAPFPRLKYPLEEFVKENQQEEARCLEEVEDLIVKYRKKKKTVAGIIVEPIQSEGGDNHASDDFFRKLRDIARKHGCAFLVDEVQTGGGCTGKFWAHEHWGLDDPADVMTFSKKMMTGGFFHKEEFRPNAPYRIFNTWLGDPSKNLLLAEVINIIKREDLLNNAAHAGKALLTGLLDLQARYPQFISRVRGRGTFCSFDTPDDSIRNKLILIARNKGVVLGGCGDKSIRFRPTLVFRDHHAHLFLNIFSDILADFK

SMILES | IC50 [1] | IC50 [2]
COc1cc(CN=O)ccc1O [4-hydroxy-3-methoxybenzaldehyde oxime] | > 1000 µM | > 1000 µM
O=NCc1ccc(O)cc1 [4-hydroxybenzaldehyde oxime] | > 1000 µM | > 1000 µM
